Assays:
Matricaria [1] = assay: Pre-emergence test/greenhouse; format: in vivo; details: after three weeks, vs untreated control
Protocol: (§1) To produce a suitable preparation of active compound, 1 part by weight of active compound is mixed with the stated amount of solvent, the stated amount of emulsifier is added and the concentrate is diluted with water to the desired concentration.
(§2) Seeds of the test plants are sown in normal soil. After about 24 hours, the soil is sprayed with the preparation of active compound such that the particular amount of active compound desired is applied per unit area. The concentration of the spray liquor is chosen so that the particular amount of active compound desired is applied in 1000 litres of water per hectare.
(§3) After three weeks, the degree of damage to the plants is rated in % damage in comparison to the development of the untreated control.
(§4) The figures denote: • 0%=no effect (like untreated control) • 100%=total destruction

Soya = assay: Pre-emergence test/greenhouse; format: in vivo; details: 4 g of ai/ha, after three weeks, vs untreated control
Protocol: as §1, §2, §3, §4

Stellaria [2] = assay: Pre-emergence test/greenhouse; format: in vivo; details: after three weeks, vs untreated control
Protocol: as §1, §2, §3, §4

Veronica [3] = assay: Pre-emergence test/greenhouse; format: in vivo; details: 4 g of ai/ha, after three weeks, vs untreated control
Protocol: as §1, §2, §3, §4

Viola [4] = assay: Pre-emergence test/greenhouse; format: in vivo; details: after three weeks, vs untreated control
Protocol: as §1, §2, §3, §4

weeds [5] = assay: Pre-emergence test, activity against weeds; format: in vivo
Protocol: as §1, §2, §3, §4

Abutilon [6] = assay: Post-emergence test/greenhouse; format: in vivo; details: after three weeks, vs untreated control
Protocol: (§5) To produce a suitable preparation of active compound, one part by weight of active compound is mixed with the stated amount of solvent, the stated amount of emulsifier is added and the concentrate is diluted with water to the desired concentration.
(§6) Test plants which have a height of 5–15 cm are sprayed with the preparation of active compound such that the particular amounts of active compound desired are applied per unit area. The concentration of the spray liquor is chosen so that the particular amounts of active compound desired are applied in 1000 l of water/ha.
as §3, §4

Alopecurus [7] = assay: Post-emergence test/greenhouse; format: in vivo; details: after three weeks, vs untreated control
Protocol: as §5, §6, §3, §4

Echinochloa = assay: Post-emergence test/greenhouse; format: in vivo; details: 15 g of ai/ha, after three weeks, vs untreated control
Protocol: as §5, §6, §3, §4

Lolium = assay: Post-emergence test/greenhouse; format: in vivo; details: 15 g of ai/ha, after three weeks, vs untreated control
Protocol: as §5, §6, §3, §4

Stellaria [8] = assay: Post-emergence test/greenhouse; format: in vivo; details: after three weeks, vs untreated control
Protocol: as §5, §6, §3, §4

Veronica [9] = assay: Post-emergence test/greenhouse; format: in vivo; details: 15 g of ai/ha, after three weeks, vs untreated control
Protocol: as §5, §6, §3, §4

Viola [10] = assay: Post-emergence test/greenhouse; format: in vivo; details: after three weeks, vs untreated control
Protocol: as §5, §6, §3, §4

weeds [11] = assay: Post-emergence test, activity against weeds; format: in vivo
Protocol: as §5, §6, §3, §4

Abutilon [12] = assay: Pre-emergence test/greenhouse; format: in vivo; details: 250 g of ai/ha, after three weeks, vs untreated control
Protocol: as §1, §2, §3, §4

Amaranthus [13] = assay: Pre-emergence test/greenhouse; format: in vivo; details: after three weeks, vs untreated control
Protocol: as §1, §2, §3, §4

Cyperus = assay: Pre-emergence test/greenhouse; format: in vivo; details: after three weeks, vs untreated control
Protocol: as §1, §2, §3, §4

Maize = assay: Pre-emergence test/greenhouse; format: in vivo; details: after three weeks, vs untreated control
Protocol: as §1, §2, §3, §4

Sinapis = assay: Pre-emergence test/greenhouse; format: in vivo; details: 250 g of ai/ha, after three weeks, vs untreated control
Protocol: as §1, §2, §3, §4

Amaranthus [14] = assay: Post-emergence test/greenhouse; format: in vivo; details: after three weeks, vs untreated control
Protocol: as §5, §6, §3, §4

Matricaria [15] = assay: Post-emergence test/greenhouse; format: in vivo; details: 125 g of ai/ha, after three weeks, vs untreated control
Protocol: as §5, §6, §3, §4

Wheat = assay: Post-emergence test/greenhouse; format: in vivo; details: 125 g of ai/ha, after three weeks, vs untreated control
Protocol: as §5, §6, §3, §4

Xanthium = assay: Post-emergence test/greenhouse; format: in vivo; details: Table B3, post-emergence, 125 g of ai/ha, after three weeks, vs untreated control
Protocol: as §5, §6, §3, §4

Alopecurus [16] = assay: Pre-emergence test/greenhouse; format: in vivo; details: after three weeks, vs untreated control
Protocol: as §1, §2, §3, §4

Chenopodium [17] = assay: Pre-emergence test/greenhouse; format: in vivo; details: 125 g of ai/ha, after three weeks, vs untreated control
Protocol: as §1, §2, §3, §4

Chenopodium [18] = assay: Post-emergence test/greenhouse; format: in vivo; details: Table B4, post-emergence, 125 g of ai/ha, after three weeks, vs untreated control
Protocol: as §5, §6, §3, §4

Ipomoea = assay: Post-emergence test/greenhouse; format: in vivo; details: Table B4, post-emergence, 125 g of ai/ha, after three weeks, vs untreated control
Protocol: as §5, §6, §3, §4

Setaria = assay: Post-emergence test/greenhouse; format: in vivo; details: Table B4, post-emergence, 125 g of ai/ha, after three weeks, vs untreated control
Protocol: as §5, §6, §3, §4

Cotton = assay: Pre-emergence test/greenhouse; format: in vivo; details: 15 g of ai/ha, after three weeks, vs untreated control
Protocol: as §1, §2, §3, §4

Barley = assay: Post-emergence test/greenhouse; format: in vivo; details: 4 g of ai/ha, after three weeks, vs untreated control
Protocol: as §5, §6, §3, §4

[19] = Table A6, pre-emergence, 250 g of ai/ha
[20] = Table B3, post-emergence, 125 g of ai/ha
[21] = Table A4, pre-emergence, 250 g of ai/ha
[22] = Table A5, pre-emergence, 250 g of ai/ha

With COC(=O)c1csc(C)c1S(=O)(=O)NC(=O)Nc1nc(C)nc(OC)n1 [Example 1, N-(4-methoxy-6-methyl-1,3,5-triazin-2-yl)-N′-(4-methoxycarbonyl-2-methyl-thien-3-yl-sulphonyl)-urea] the “degree of damage to the plants, Matricaria” value (shortened to “degree of damage … Matricaria”) (Matricaria [1]; 4 g of ai/ha) was 95%, the “degree of damage to the plants, Soya” value (Soya) was 10% and the “degree of damage to the plants, Stellaria” value (shortened to “degree of damage … Stellaria”) (Stellaria [2]; 4 g of ai/ha) was 95%. The “degree of damage to the plants, Veronica” value (Veronica [3]) was 95%, the “degree of damage to the plants, Viola” value (Viola [4]; 4 g of ai/ha) was 100% and the activity against weeds (weeds [5]) was “very strong activity”. For the same molecule, the “degree of damage to the plants, Abutilon” value (Abutilon [6]; 15 g of ai/ha) was 100%, the “degree of damage to the plants, Alopecurus” value (from here on “degree of damage … Alopecurus”) (Alopecurus [7]; 15 g of ai/ha) was 100% and the “degree of damage to the plants, Echinochloa” value (Echinochloa) was 100%. For the same molecule, the “degree of damage to the plants, Lolium” value (Lolium) was 100%, the “degree of damage … Stellaria” value (Stellaria [8]; 15 g of ai/ha) was 100% and the “degree of damage to the plants, Veronica” value (Veronica [9]) was 100%. For the same molecule, the “degree of damage to the plants, Viola” value (Viola [10]; post-emergence, 15 g of ai/ha) was 100%, the activity against weeds (weeds [11]) was “very strong activity” and the melting point was 195 °C.

In the case of COC(=O)c1csc(C)c1NS(=O)(=O)NC(=O)Nc1nc(OC)cc(OC)n1 [Example 2, N-(4,6-dimethoxy-pyrimidin-2-yl)-N′-(4-methoxycarbonyl-2-methyl-thien-3-yl-amino-sulphonyl)-urea], the “degree of damage to the plants, Abutilon” value (Abutilon [12]; Table A6, pre-emergence) is reported as 90%, the “degree of damage to the plants, Amaranthus” value (“degree of damage … Amaranthus” below) (Amaranthus [13]; [19]) is reported as 95% and the “degree of damage to the plants, Cyperus” value (Cyperus; [19]) is reported as 95%. For the same molecule, the “degree of damage to the plants, Maize” value (Maize; [19]) was 20%, the “degree of damage to the plants, Sinapis” value (Sinapis; Table A6, pre-emergence) was 95% and the activity against weeds (weeds [5]) was “very strong activity”. For the same molecule, the “degree of damage … Amaranthus” value (Amaranthus [14]; [20]) was 100%, the “degree of damage … Matricaria” value (Matricaria [15]; Table B3, post-emergence) was 100% and the “degree of damage to the plants, Viola” value (Viola [10]; [20]) was 100%. For the same molecule, the “degree of damage to the plants, Wheat” value (Wheat; Table B3, post-emergence) was 0%, the “degree of damage to the plants, Xanthium” value (Xanthium) was 95% and the activity against weeds (weeds [11]) was “very strong activity”. It also gave a melting point of 174 °C.

For CCCc1scc(C(=O)OCC)c1NS(=O)(=O)NC(=O)Nc1nc(OC)cc(OC)n1 [Example 3], the “degree of damage to the plants, Abutilon” value (Abutilon [12]; Table A4, pre-emergence) was 80%, the “degree of damage … Alopecurus” value (Alopecurus [16]; [21]) was 70% and the “degree of damage … Amaranthus” value (Amaranthus [13]; [21]) was 90%. The “degree of damage to the plants, Sinapis” value (Sinapis; Table A4, pre-emergence) was 90% and the activity against weeds (weeds [5]) was “very strong activity”.

For CCOC(=O)c1csc(C(C)C)c1NS(=O)(=O)NC(=O)Nc1nc(OC)cc(OC)n1 [Example 4], the “degree of damage to the plants, Abutilon” value (Abutilon [12]; Table A5, pre-emergence) was 95%, the “degree of damage … Alopecurus” value (Alopecurus [16]; [22]) was 100% and the “degree of damage … Amaranthus” value (Amaranthus [13]; [22]) was 90%. The “degree of damage to the plants, Cyperus” value (Cyperus; [22]) was 90%, the “degree of damage to the plants, Sinapis” value (Sinapis; Table A5, pre-emergence) was 90% and the activity against weeds (weeds [5]) was “very strong activity”.

For CCc1scc(C(=O)OC)c1NS(=O)(=O)NC(=O)Nc1nc(OC)cc(OC)n1 [Example 5], the “degree of damage to the plants, Chenopodium” value (Chenopodium [17]) was 95%, the “degree of damage to the plants, Cyperus” value (Cyperus; pre-emergence, 125 g of ai/ha) was 95% and the “degree of damage to the plants, Maize” value (Maize; pre-emergence, 125 g of ai/ha) was 20%. For the same molecule, the “degree of damage … Matricaria” value (Matricaria [1]; 125 g of ai/ha) was 100%, the “degree of damage to the plants, Viola” value (Viola [4]; 125 g of ai/ha) was 95% and the activity against weeds (weeds [5]) was “very strong activity”. For the same molecule, the “degree of damage to the plants, Chenopodium” value (Chenopodium [18]) was 100%, the “degree of damage to the plants, Ipomoea” value (Ipomoea) was 100% and the “degree of damage … Matricaria” value (Matricaria [15]; Table B4, post-emergence) was 100%. For the same molecule, the “degree of damage to the plants, Setaria” value (Setaria) was 90%, the “degree of damage to the plants, Wheat” value (Wheat; Table B4, post-emergence) was 20% and the activity against weeds (weeds [11]) was “very strong activity”.

In the case of COC(=O)c1csc(C)c1S(=O)(=O)NC(=O)Nc1nc(OC)cc(OC)n1 [Example 6], the “degree of damage … Alopecurus” value (Alopecurus [16]; pre-emergence, 15 g of ai/ha) is reported as 80%, the “degree of damage … Amaranthus” value (Amaranthus [13]; pre-emergence, 15 g of ai/ha) is reported as 90% and the “degree of damage to the plants, Cotton” value (Cotton) is reported as 0%. For the same molecule, the “degree of damage … Stellaria” value (Stellaria [2]; 15 g of ai/ha) was 90%, the “degree of damage to the plants, Viola” value (Viola [4]; 15 g of ai/ha) was 100% and the activity against weeds (weeds [5]) was “very strong activity”. For the same molecule, the “degree of damage to the plants, Abutilon” value (Abutilon [6]; 4 g of ai/ha) was 100%, the “degree of damage … Alopecurus” value (Alopecurus [7]; 4 g of ai/ha) was 90% and the “degree of damage … Amaranthus” value (Amaranthus [14]; post-emergence, 4 g of ai/ha) was 100%. For the same molecule, the “degree of damage to the plants, Barley” value (Barley) was 20%, the “degree of damage … Stellaria” value (Stellaria [8]; 4 g of ai/ha) was 95% and the activity against weeds (weeds [11]) was “very strong activity”.
